These results are taken from ChEMBL document CHEMBL1201862, “PubChem BioAssay data set” (2004).

Test systems include ACHN; HCT-15; HL-60; LOX IMVI; M14; NCI-H226; NCI-H460; OVCAR-3; OVCAR-5; SF-539; SK-MEL-2; SK-OV-3; TK-10; UACC-257; UO-31; A549; HOP-92; OVCAR-4; SK-MEL-5; CAKI-1.
What all share (assay): growth of human tumour cells (NCI), 48 h

Counter-ions that a name gives are not always drawn.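 All cell lines were grown in 96-well plates and treated with compound for 48 hours. The concentration for 50% growth inhibition is given as GI50.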 Calls of active or inactive are those of the source. Cut-off read from the data, not from the text of the source: active = GI50 up to about 1.1 µM and inactive = higher.

On to `COC(=O)C1=C(O)C(C(=O)OC)[C@@]2(O)[C@@H](C(=O)OC)[C@H](C)C[C@@H]1[C@@H]2C(=O)OC` (stereo partly specified), for which the GI50 was 59.8 µM (inactive) with ACHN; 25.9 µM in the test with HCT-15; 25.9 µM (inactive) in the test with HL-60; 32.5 µM (inactive) in the test on LOX IMVI; 20.6 µM (inactive) in the test with M14; 39.3 µM (inactive) in the test with NCI-H226. Besides, the GI50 is 20 µM (inactive) in the test on NCI-H460; 20 µM (inactive) with OVCAR-3; 30.5 µM (inactive) in the test with OVCAR-5; 18.4 µM (inactive) in the test with SF-539; 21.4 µM (inactive) with SK-MEL-2; 26 µM (inactive) in the test on SK-OV-3. In addition, the results for the GI50 in the test on TK-10, in the test with UACC-257 and in the test with UO-31 were 57.9 µM (inactive), 63.1 µM (inactive) and 21.5 µM (inactive), respectively.
As for `NCc1ccccc1-c1c2nc(c(-c3ccccc3CN)c3ccc([nH]3)c(-c3ccccc3CN)c3nc(c(-c4ccccc4CN)c4ccc1[nH]4)C=C3)C=C2`, the GI50 in the test with A549 was 22.1 µM (inactive); with ACHN it was 16.4 µM (inactive); in the test on HCT-15 it was 22 µM; in the test on HL-60 it was 14.5 µM (inactive); in the test with HOP-92 it was 7.08 µM (inactive); in the test with LOX IMVI it was 19.7 µM (inactive). The GI50 in the test with M14 is 21 µM (inactive); in the test with NCI-H226, 13.9 µM (inactive); in the test with NCI-H460, 19.1 µM (inactive); with OVCAR-3, 16.2 µM (inactive); in the test with OVCAR-4 it was 19.4 µM (inactive); in the test with OVCAR-5, 13.9 µM (inactive). Moreover, the GI50 was 24.7 µM (inactive) in the test with SK-MEL-2; 22.9 µM (inactive) in the test on SK-MEL-5; 27.5 µM (inactive) in the test on TK-10; 20.3 µM (inactive) with UACC-257; 18.5 µM (inactive) in the test on UO-31.
For `CCCCc1oc2ccccc2c1C(=O)c1cc(I)c(OCCN(CC)CC)c(I)c1` [AMIODARONE HYDROCHLORIDE], the GI50 in the test on A549 was 8.51 µM (inactive); in the test on CAKI-1, 6.14 µM (inactive); with HCT-15, 4.12 µM; with HL-60, 2.79 µM (inactive); in the test on HOP-92, 3.86 µM (inactive); in the test with LOX IMVI, 3.82 µM (inactive). The GI50 was 4.5 µM (inactive) with NCI-H226; 4.09 µM (inactive) in the test with NCI-H460; 6.22 µM (inactive) with OVCAR-3; 6.5 µM (inactive) in the test on OVCAR-4; 5.21 µM (inactive) in the test with OVCAR-5; 5.07 µM (inactive) with SF-539. For the same compound, the GI50 in the test with SK-MEL-2 was 4.63 µM (inactive); in the test with SK-MEL-5 it was 4.7 µM (inactive); in the test on SK-OV-3 it was 5.98 µM (inactive); in the test with UACC-257, 5.21 µM (inactive).
In the case of `CSc1ccccc1P(c1ccccc1SC)c1ccccc1SC`, the GI50 in the test with A549 is > 100 µM (inactive); with ACHN, > 100 µM (inactive); with CAKI-1, > 100 µM (inactive); in the test with HCT-15, over 100 µM; with HOP-92, > 100 µM (inactive); in the test on LOX IMVI, > 100 µM (inactive). For the same compound, the GI50 in the test on M14, in the test with NCI-H226, in the test on OVCAR-4, in the test on OVCAR-5, in the test with SF-539 and with SK-MEL-2 was > 100 µM (inactive) in each case. In addition, the GI50 in the test on SK-MEL-5, in the test with SK-OV-3, in the test with TK-10 and with UO-31 was > 100 µM (inactive) in each case.
As to `O=C1CC2CC3OC3[C@H]3c4cc5c(cc4C(=O)N1C23)OCO5` (stereo partly specified), the GI50 is > 100 µM (inactive) with A549; > 100 µM (inactive) with ACHN; > 100 µM (inactive) in the test with CAKI-1; over 100 µM in the test with HCT-15; > 100 µM (inactive) with HL-60; > 100 µM (inactive) with HOP-92. In addition, the GI50 in the test with LOX IMVI, in the test with M14, in the test with NCI-H226, with NCI-H460, in the test with OVCAR-3 and in the test with OVCAR-4 was > 100 µM (inactive) throughout. Moreover, the GI50 with OVCAR-5, with SF-539, with SK-MEL-2, in the test on SK-OV-3, in the test with TK-10 and in the test on UO-31 was > 100 µM (inactive) throughout.
Take `CCOC(=O)c1cc(C(=O)O)c(=O)n2c1[nH]c1ccccc12`: the GI50 was 60.8 µM (inactive) in the test on A549; > 100 µM (inactive) in the test with ACHN; > 100 µM (inactive) in the test on CAKI-1; 46.7 µM with HCT-15; > 100 µM (inactive) with HL-60; > 100 µM (inactive) with M14. The GI50 in the test on NCI-H460 is 89.9 µM (inactive); in the test with OVCAR-3 it was > 100 µM (inactive); in the test on OVCAR-4, > 100 µM (inactive); in the test on SF-539, 36.4 µM (inactive); with SK-MEL-2, > 100 µM (inactive); with SK-MEL-5 it was 60.8 µM (inactive). For the same compound, the GI50 was 78.7 µM (inactive) in the test on SK-OV-3, > 100 µM (inactive) in the test with TK-10, > 100 µM (inactive) in the test on UACC-257 and 23.9 µM (inactive) in the test on UO-31.
As for `Nc1nnc(O)c2c1c(I)cn2C1OC(CO)C(O)C1O` (stereo unspecified), the GI50 was 2.07 µM (inactive) with A549; 0.592 µM (active) in the test with ACHN; 0.188 µM in the test with HCT-15; 0.118 µM (active) in the test on HL-60; 0.805 µM (active) in the test with HOP-92; 0.112 µM (active) with LOX IMVI. The GI50 with M14 is 0.64 µM (active); in the test with NCI-H226 it was 3.04 µM (inactive); with NCI-H460 it was 0.0728 µM (active); in the test on OVCAR-3, 0.0745 µM (active); in the test with OVCAR-4, 1.3 µM (inactive); in the test with OVCAR-5, 0.689 µM (active). Further, the GI50 was 0.526 µM (active) in the test with SF-539; 0.0226 µM (active) in the test on SK-MEL-2; 1.89 µM (inactive) in the test on SK-MEL-5; > 100 µM (inactive) with SK-OV-3; 3.01 µM (inactive) with TK-10; 2.15 µM (inactive) with UACC-257. In the test with UO-31, the GI50 is 1.52 µM (inactive).
Turning to `CCCCOc1ccc2c(c1)CC[C@@H]1[C@@H]2CC[C@]2(C)C(=O)N(CCCC)C(=O)C[C@@H]12`, the GI50 was > 100 µM (inactive) with CAKI-1; over 100 µM in the test on HCT-15; 44.4 µM (inactive) with HL-60; > 100 µM (inactive) with HOP-92; > 100 µM (inactive) with M14; > 100 µM (inactive) with NCI-H226. In addition, the GI50 with NCI-H460 was > 100 µM (inactive); in the test on OVCAR-3 it was > 100 µM (inactive); with OVCAR-5, > 100 µM (inactive); in the test on SK-MEL-2 it was > 100 µM (inactive); in the test on SK-MEL-5 it was 26.3 µM (inactive); in the test with SK-OV-3 it was > 100 µM (inactive). Besides, the GI50 with UO-31 is > 100 µM (inactive).
On to `COC1CCC2C(=O)CCCC2O1` (stereo unspecified), for which the GI50 in the test on A549 was > 100 µM (inactive); in the test on ACHN it was > 100 µM (inactive); in the test on CAKI-1, > 100 µM (inactive); in the test with HCT-15, over 100 µM; with HL-60 it was > 100 µM (inactive); with HOP-92, > 100 µM (inactive). The GI50 in the test on M14, in the test with NCI-H226, with NCI-H460, in the test with OVCAR-3, in the test on OVCAR-4 and in the test on OVCAR-5 was > 100 µM (inactive) throughout. Moreover, the GI50 with SF-539, with SK-MEL-2, with SK-MEL-5, with SK-OV-3, with TK-10 and in the test with UACC-257 was > 100 µM (inactive) throughout. The GI50 in the test with UO-31 was > 100 µM (inactive).
Regarding `O=C(/C=C1\Nc2ncccc2N=C1CC(=O)c1ccccc1)c1ccccc1`, the GI50 in the test on A549 is 6.05 µM (inactive); in the test on ACHN it was 4.94 µM (inactive); in the test on CAKI-1, 2.06 µM (inactive); in the test on HCT-15 it was 2 µM; in the test with HL-60 it was 13.5 µM (inactive); with HOP-92, 3.52 µM (inactive). For the same compound, the GI50 is 5.12 µM (inactive) in the test with LOX IMVI; 7.35 µM (inactive) in the test with M14; 1.59 µM (inactive) in the test with NCI-H460; 1.66 µM (inactive) in the test with OVCAR-3; 9.2 µM (inactive) in the test with OVCAR-4; 23.5 µM (inactive) in the test with OVCAR-5. Besides, the GI50 was 13.2 µM (inactive) in the test with SF-539; 12.6 µM (inactive) in the test on SK-MEL-2; 4.16 µM (inactive) in the test on SK-MEL-5; 12 µM (inactive) in the test with SK-OV-3; 35.6 µM (inactive) with TK-10; 65.6 µM (inactive) in the test with UACC-257. In addition, the GI50 in the test on UO-31 was 5.47 µM (inactive).
`Cc1cc2c3c(c1)CCCN3CCC2`: the GI50 is > 10 µM (inactive) in the test on A549; > 10 µM (inactive) in the test with ACHN; > 10 µM (inactive) with CAKI-1; over 10 µM in the test with HCT-15; > 10 µM (inactive) with HL-60; > 10 µM (inactive) in the test with HOP-92. The GI50 with LOX IMVI, in the test with M14, in the test on NCI-H226, in the test on NCI-H460, in the test with OVCAR-3 and in the test on OVCAR-4 was > 10 µM (inactive) each time. Also, the GI50 in the test on SF-539, in the test with SK-MEL-2, with SK-MEL-5, with SK-OV-3, in the test with TK-10 and with UACC-257 was > 10 µM (inactive) throughout. In addition, the GI50 with UO-31 was > 10 µM (inactive).
As for `CC(C)(C)N(Cc1ccoc1)C(=O)/C=C\[S+]([O-])c1ccccc1` (stereo unspecified), the GI50 in the test on A549 was 24.3 µM (inactive); in the test with ACHN, 25.9 µM (inactive); in the test with CAKI-1, 14.5 µM (inactive); in the test with HCT-15, 19.2 µM; in the test with HL-60 it was 12.7 µM (inactive); in the test on HOP-92, 15 µM (inactive). For the same compound, the GI50 in the test on LOX IMVI was 5.45 µM (inactive); with M14, 17.2 µM (inactive); with NCI-H226, 25.9 µM (inactive); in the test with OVCAR-3 it was 13.3 µM (inactive); in the test on OVCAR-4, 20 µM (inactive); in the test with OVCAR-5, 25.2 µM (inactive). In addition, the GI50 in the test with SF-539 was 21 µM (inactive); in the test with SK-MEL-2 it was 20.9 µM (inactive); in the test with SK-MEL-5, 13.4 µM (inactive); in the test on SK-OV-3, 24 µM (inactive); in the test on TK-10, 44.2 µM (inactive); in the test on UACC-257 it was 19.9 µM (inactive). In addition, in the test on UO-31, the GI50 is 14.5 µM (inactive).
